Results: patent US5057503A, “Derivativized polysaccharides with biologic activity, method of their isolation, and uses therefor” (The Brigham and Women's Hospital, priority 1989, dated 1991)

Test system: human monocyte β-glucan receptors
Experiment: Inhibition of adherent monocyte phagocytosis of zymosan particles after pretreatment with isolated carbohydrates
Type: cell-based
Conditions: for phagocytosis-inhibiting activity after derivatization with 2-aminopyridine (in words): 100 ng/ml tested; for activity after derivatization with 2-aminopyridine (in words): as much as 800 ng/ml in the functional monocyte assays; for phagocytosis-inhibiting activity / interaction with human monocyte β-glucan receptors (in words): concentration not given

In the case of `OC[C@H]1O[C@H](O[C@H]2[C@H](O)[C@@H](O)[C@@H](O[C@H]3[C@H](O)[C@@H](O)[C@@H](O[C@H]4[C@H](O)[C@@H](O)[C@@H](O[C@H]5[C@H](O)[C@@H](O)[C@@H](O[C@H]6[C@H](O)[C@@H](O)[C@@H](O[C@H]7[C@H](O)[C@@H](O)C(Nc8ccccn8)O[C@@H]7CO)O[C@@H]6CO)O[C@@H]5CO)O[C@@H]4CO)O[C@@H]3CO)O[C@@H]2CO)[C@H](O)[C@@H](O)[C@@H]1O` (some centres unmarked) [Derivatized maltoheptose], the “phagocytosis-inhibiting activity after derivatization with 2-aminopyridine (in words)” value is reported as “not acquired”, the “activity after derivatization with 2-aminopyridine (in words)” value is reported as “remained inactive” and the “phagocytosis-inhibiting activity / interaction with human monocyte β-glucan receptors (in words)” value is reported as “remained inactive”.
For `OC[C@H]1O[C@H](O[C@H]2[C@H](O)[C@@H](O)[C@@H](O[C@H]3[C@H](O)[C@@H](O)[C@@H](O[C@H]4[C@H](O)[C@@H](O)[C@@H](O[C@H]5[C@H](O)[C@@H](O)[C@@H](O[C@H]6[C@H](O)[C@@H](O)[C@@H](O[C@H]7[C@H](O)[C@@H](O)C(O)O[C@@H]7CO)O[C@@H]6CO)O[C@@H]5CO)O[C@@H]4CO)O[C@@H]3CO)O[C@@H]2CO)[C@H](O)[C@@H](O)[C@@H]1O` (some centres unmarked) [Maltoheptose], the “effect on monocyte ingestion of zymosan (in words)” value (500 ng/ml to 100 μg/ml, without derivatization) was “no effect” and the “proportion of monocytes ingesting zymosan after pretreatment” value (100 μg/ml, without derivatization, without pretreatment 67% (synthetic β-heptaglucoside) and 50% (maltoheptose)) was 52%.
For `OC[C@H]1O[C@@H](OC[C@H]2O[C@@H](OC[C@H]3O[C@@H](OC[C@H]4O[C@@H](OC[C@H]5OC(Nc6ccccn6)[C@H](O)[C@@H](O)[C@@H]5O)[C@H](O)[C@@H](O[C@@H]5O[C@H](CO)[C@@H](O)[C@H](O)[C@H]5O)[C@@H]4O)[C@H](O)[C@@H](O)[C@@H]3O)[C@H](O)[C@@H](O[C@@H]3O[C@H](CO)[C@@H](O)[C@H](O)[C@H]3O)[C@@H]2O)[C@H](O)[C@@H](O)[C@@H]1O` (stereo partly drawn) [Derivatized synthetic β-heptaglucoside], the “phagocytosis-inhibiting activity after derivatization with 2-aminopyridine (in words)” value was “not acquired”, the “activity after derivatization with 2-aminopyridine (in words)” value was “remained inactive” and the “phagocytosis-inhibiting activity / interaction with human monocyte β-glucan receptors (in words)” value was “remained inactive”.
